Test systems include ACHN; DU-145; EKVX; HL-60; HOP-92; HT-29; IGROV-1; K562; M14; MCF7; NCI-H460; NCI-H522; RPMI-8226; RXF 393; SK-MEL-5; SN12C; SR; UACC-257; UACC-62; UO-31.
Holding throughout (test): NCI tumour cell line growth inhibition, 48 h

Each structure is given as a SMILES string.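 Five concentrations, 48 hours, 96-well plates. GI50 is the concentration that inhibits growth by half.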 The source made the active and inactive calls. Rule as the data show it: active = GI50 up to about 1.1 µM and inactive = higher. Some results are limits rather than exact numbers.

Regarding `Oc1cc(F)cc2cccnc12`, the GI50 in the assay on ACHN was 0.933 µM (active); in the assay on DU-145, 5.58 µM (inactive); in the assay with EKVX, 0.418 µM (active); with HL-60 it was 0.0887 µM (active); with HOP-92, 0.0356 µM (active); in the assay on HT-29, 4.47 µM (inactive). The GI50 with IGROV-1 was 0.889 µM (active); in the assay on K562, 0.105 µM (active); in the assay with M14 it was 1.02 µM (active); in the assay on MCF7 it was 0.0689 µM (active); with NCI-H460, 1.24 µM (inactive); in the assay with NCI-H522 it was 0.183 µM (active). Besides, the GI50 with RPMI-8226 was 0.259 µM (active); with RXF 393 it was 3.75 µM (inactive); with SK-MEL-5, 0.998 µM (active); in the assay on SN12C it was 1.04 µM (active); in the assay on SR, 0.182 µM (active); with UACC-257 it was 0.402 µM (active). Also, the GI50 is 2.73 µM (inactive) in the assay on UACC-62 and 0.652 µM (active) with UO-31.
In the case of `O=c1oc2ccc3ccccc3c2cc1-c1cn2ccsc2n1`, the GI50 is 16.1 µM (inactive) in the assay with ACHN; 19.9 µM (inactive) in the assay on DU-145; 16.1 µM (inactive) with EKVX; 17.8 µM (inactive) with HL-60; 13 µM (inactive) with HOP-92; 18 µM (inactive) in the assay on HT-29. Moreover, the GI50 in the assay with IGROV-1 is 0.646 µM (active); with K562 it was 17.3 µM (inactive); in the assay on M14, 24 µM (inactive); in the assay on MCF7, 3.03 µM (inactive); in the assay with NCI-H460 it was 51.5 µM (inactive); in the assay on NCI-H522 it was 17.1 µM (inactive). Besides, the GI50 is 11.5 µM (inactive) with RPMI-8226; 17.3 µM (inactive) in the assay on RXF 393; 15.4 µM (inactive) in the assay with SK-MEL-5; 28.4 µM (inactive) in the assay on SN12C; 9.27 µM (inactive) in the assay on SR; 24.8 µM (inactive) in the assay on UACC-257. Also, the GI50 was 16.2 µM (inactive) in the assay with UACC-62 and 14.6 µM (inactive) in the assay with UO-31.
As for `NCCSCC(N)C(=O)O` (configuration not stated), the GI50 in the assay with ACHN was 65.9 µM (inactive); in the assay with DU-145, > 90.6 µM (inactive); in the assay with EKVX, > 497 µM (inactive); with HL-60, > 497 µM (inactive); in the assay with HOP-92, > 497 µM (inactive); with HT-29, 39.5 µM (inactive). For the same compound, the GI50 was > 87.5 µM (inactive) in the assay on IGROV-1; 37.2 µM (inactive) with K562; > 497 µM (inactive) with M14; 46.7 µM (inactive) in the assay with MCF7; 60.1 µM (inactive) in the assay with NCI-H460; > 63 µM (inactive) in the assay with NCI-H522. The GI50 was 47.1 µM (inactive) in the assay on RPMI-8226; > 497 µM (inactive) with RXF 393; > 63.7 µM (inactive) with SK-MEL-5; > 497 µM (inactive) with SN12C; > 497 µM (inactive) with SR; > 497 µM (inactive) in the assay with UACC-257. Also, the GI50 with UACC-62 was > 497 µM (inactive); in the assay with UO-31, 85.5 µM (inactive).
In the case of `[C-]#[N+]C1(C(=O)OCC)CC1`, the GI50 with ACHN, with DU-145, with EKVX, in the assay on HL-60, with HOP-92 and in the assay on HT-29 was > 100 µM (inactive) in each case. The GI50 in the assay on IGROV-1, in the assay with K562, in the assay on M14, with MCF7, in the assay on NCI-H460 and with NCI-H522 was > 100 µM (inactive) in each case. The GI50 in the assay with RPMI-8226, in the assay on RXF 393, in the assay on SK-MEL-5, with SN12C, in the assay with SR and with UACC-257 was > 100 µM (inactive) each time. In addition, the GI50 in the assay on UACC-62 is > 100 µM (inactive).
Regarding `CC(C)CC(=O)NC(NC(C)C)(C(F)(F)F)C(F)(F)F`, the GI50 in the assay on ACHN is > 100 µM (inactive); in the assay on DU-145 it was > 100 µM (inactive); in the assay with EKVX, > 100 µM (inactive); in the assay with HL-60, 60.5 µM (inactive); in the assay with HOP-92, > 100 µM (inactive); with HT-29 it was > 100 µM (inactive). The GI50 in the assay with IGROV-1, in the assay with K562, in the assay with MCF7, with NCI-H460, in the assay on NCI-H522 and in the assay with RPMI-8226 was > 100 µM (inactive) throughout. Further, the GI50 in the assay on RXF 393, in the assay on SK-MEL-5, in the assay with SN12C, in the assay on SR, in the assay on UACC-257 and with UACC-62 was > 100 µM (inactive) throughout. Besides, in the assay on UO-31, the GI50 was > 100 µM (inactive).
In the case of `CSc1[nH]nc(N)c1C(=O)Nc1ccc(C)cc1`, the GI50 in the assay on ACHN was 55.2 µM (inactive); in the assay with DU-145, 22.3 µM (inactive); in the assay on EKVX it was 32.2 µM (inactive); with HL-60, 39.3 µM (inactive); in the assay with HOP-92 it was 19.5 µM (inactive); in the assay with HT-29 it was > 100 µM (inactive). Besides, the GI50 in the assay on K562 is 69.5 µM (inactive); in the assay on M14, 83.9 µM (inactive); in the assay on MCF7, 39.5 µM (inactive); in the assay with NCI-H460, 60.1 µM (inactive); in the assay on NCI-H522, 26.7 µM (inactive); in the assay with RPMI-8226, 51.3 µM (inactive). Also, the GI50 in the assay with RXF 393 is 97.9 µM (inactive); in the assay with SK-MEL-5 it was 31 µM (inactive); in the assay with SN12C, 96.4 µM (inactive); in the assay on SR, 30.6 µM (inactive); in the assay with UACC-257, 62.4 µM (inactive); with UACC-62 it was > 100 µM (inactive). Also, in the assay with UO-31, the GI50 is 36.9 µM (inactive).
In the case of `O=C(Nc1ccc(Cl)cc1)NS(=O)(=O)c1coc2ccccc2c1=O`, the GI50 with ACHN, with DU-145, with EKVX, with HL-60, with HOP-92 and with HT-29 was > 10 µM (inactive) each time. Besides, the GI50 in the assay with IGROV-1, with M14, in the assay with MCF7, in the assay on NCI-H460, in the assay with NCI-H522 and in the assay with RPMI-8226 was > 10 µM (inactive) each time. The GI50 with RXF 393, in the assay on SK-MEL-5, with SN12C, with SR, in the assay on UACC-257 and in the assay on UACC-62 was > 10 µM (inactive) throughout.
As to `CC(CC[C@@H](O)C(C)(C)O)C1[C@@H](O)CC2(C)C3CC(O)C4C(C)(C)[C@@H](OC5OC(CO)C(O)C(O)C5O)CC[C@@]45C[C@@]35CC[C@]12C` (some centres not stated), the GI50 in the assay with ACHN, in the assay with DU-145, in the assay on EKVX, in the assay on HL-60, in the assay with HOP-92 and in the assay on HT-29 was > 10 µM (inactive) each time. In addition, the GI50 in the assay with IGROV-1, in the assay on K562, with M14, with MCF7, in the assay on NCI-H460 and in the assay on NCI-H522 was > 10 µM (inactive) in each case. Further, the GI50 in the assay on RPMI-8226, in the assay on RXF 393, in the assay with SK-MEL-5, in the assay on SN12C, in the assay with SR and with UACC-257 was > 10 µM (inactive) throughout. Besides, in the assay on UACC-62, the GI50 was > 10 µM (inactive).
For `O=C(O)CCC1(C(=O)O)CCC(=O)c2ccccc21` (configuration not stated), the GI50 in the assay with ACHN, in the assay on DU-145, with HL-60, with HOP-92, in the assay on HT-29 and in the assay on IGROV-1 was > 100 µM (inactive) each time. Further, the GI50 in the assay on K562, with M14, in the assay with MCF7, in the assay on NCI-H460, with NCI-H522 and in the assay on RPMI-8226 was > 100 µM (inactive) in each case. The GI50 in the assay with RXF 393, in the assay with SK-MEL-5, in the assay with SN12C, with SR, with UACC-257 and in the assay on UACC-62 was > 100 µM (inactive) in each case. Further, the GI50 with UO-31 is > 100 µM (inactive).
As for `C=C(Br)COc1ccc2c(C)cc(=O)oc2c1`, the GI50 in the assay on ACHN was 60.5 µM (inactive); in the assay on DU-145 it was > 100 µM (inactive); in the assay with EKVX, 43.3 µM (inactive); in the assay on HL-60 it was 40.2 µM (inactive); in the assay on HOP-92, 12.5 µM (inactive); in the assay on HT-29 it was 66.4 µM (inactive). Moreover, the GI50 in the assay with IGROV-1 is 49.3 µM (inactive); in the assay on K562, 49 µM (inactive); with M14 it was > 100 µM (inactive); in the assay on MCF7 it was < 0.01 µM (active); in the assay with NCI-H460 it was 88.5 µM (inactive); in the assay on NCI-H522, 42.6 µM (inactive). For the same compound, the GI50 in the assay on RPMI-8226 is 44.6 µM (inactive); in the assay on RXF 393, 0.0721 µM (active); in the assay on SK-MEL-5, 14.6 µM (inactive); with SN12C, > 100 µM (inactive); in the assay on SR, 44.2 µM (inactive); in the assay on UACC-257 it was 73.5 µM (inactive). The GI50 in the assay with UO-31 is 64.1 µM (inactive).

(Values after ChEMBL document CHEMBL1201862, “PubChem BioAssay data set” (2004).)
